The results in this text go back to patent US20190388421A1, “NOVEL COMPOUNDS AND PHARMACEUTICAL COMPOSITIONS THEREOF FOR THE TREATMENT OF FIBROSIS” (Galapagos NV, priority 2016, published 2019).

Test [1] concerns the target T1, human GPCR sphingosine 1-phosphate receptor 2 (S1PR2) (Homo sapiens, UniProt O95136).
T1 construct: host or cells: CHO
Nature of the test: S1P2 antagonist assay (Ca2+ flux, S1P at EC80). Format: cell-based. The following applies: CHO-S1PR2 cells, highest concentration 20 μM. The method in brief: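 CHO cells stably overexpressing human S1PR2, serum-starved 1 h and loaded with Fluo8 dye, were read for 3 min after compound addition, then stimulated with S1P at EC80 after 15 min at 37 °C. Top concentration 20 μM in a 10-point 1/3 series; Ca2+ fluorescence ratio normalized to vehicle and S1P EC80, giving EC50.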

Test [2] has as its target T2, human GPCR sphingosine 1-phosphate receptor 1 (S1PR1) (Homo sapiens, UniProt P21453).
T2 construct: host or cells: CHO
The experiment in a line: S1PR1 selectivity assay (Ca2+ flux, antagonist). The class given is cell-based. The conditions noted are these: S1P1 antagonist EC50, CHO cells overexpressing human S1PR1 and Gq protein. In short, it runs like this: (§1)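 CHO cells stably overexpressing human S1PR1 or S1PR5 with Gq were preincubated with compound 15 min at 37 °C, then stimulated with S1P at EC80 (S1PR1) or an S1PR5-specific agonist (S1PR5). Ca2+ fluorescence was read for 3 min; 10-point 1/3 dilutions from 20 μM final, normalized to vehicle and EC80 trigger, gave EC50.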

Test [3] deals with T3, human GPCR sphingosine 1-phosphate receptor 5 (S1PR5) (Homo sapiens, UniProt Q9H228).
T3 construct: host or cells: CHO
T3 sequence (Q9H228 whole entry): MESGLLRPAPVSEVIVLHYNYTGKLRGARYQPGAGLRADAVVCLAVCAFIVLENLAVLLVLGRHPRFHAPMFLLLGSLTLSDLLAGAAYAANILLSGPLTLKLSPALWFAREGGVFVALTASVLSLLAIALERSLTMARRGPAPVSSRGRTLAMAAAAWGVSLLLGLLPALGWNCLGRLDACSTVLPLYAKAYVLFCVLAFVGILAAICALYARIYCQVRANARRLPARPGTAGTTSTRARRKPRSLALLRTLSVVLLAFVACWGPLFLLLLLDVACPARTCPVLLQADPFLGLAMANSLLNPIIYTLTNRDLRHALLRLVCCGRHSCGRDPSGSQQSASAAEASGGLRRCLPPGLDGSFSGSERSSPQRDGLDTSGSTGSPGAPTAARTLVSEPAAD
Nature of the test: S1PR5 selectivity assay (Ca2+ flux, antagonist, S1PR5 specific agonist trigger). The conditions noted are these: S1P5 antagonist EC50, CHO cells overexpressing human S1PR5 and Gq protein. The class given is cell-based. The method in brief:
as §1

The target of a further test is T4, S1PR2 (Homo sapiens, UniProt O95136).
T4 construct: expressed in transfected cells
T4 sequence (O95136 whole entry): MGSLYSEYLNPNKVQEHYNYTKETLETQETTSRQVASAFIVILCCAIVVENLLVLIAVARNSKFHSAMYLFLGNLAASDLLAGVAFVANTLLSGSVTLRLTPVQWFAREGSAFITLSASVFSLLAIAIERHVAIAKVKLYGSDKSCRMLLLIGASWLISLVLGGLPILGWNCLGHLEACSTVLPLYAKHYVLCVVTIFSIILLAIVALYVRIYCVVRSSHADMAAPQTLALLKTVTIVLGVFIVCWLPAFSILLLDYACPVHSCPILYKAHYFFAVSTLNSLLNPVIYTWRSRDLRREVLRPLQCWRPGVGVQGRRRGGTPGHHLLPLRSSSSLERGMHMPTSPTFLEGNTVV
Nature of the test: GTP-γS binding assay ([35S]GTPγS, S1P at EC80, S1PR2 membranes). The following applies: membranes from stable cell line over expressing S1PR2, read-out: S1PR2 EC. The class given is biochemical. In short, it runs like this:
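Compounds tested against S1P at its EC80 on membranes (2.5 μg/well) from a stable S1PR2-overexpressing line, pre-incubated with 1 μM GDP 15 min at 4 °C. Buffer: 20 mM Tris pH 7.5, 10 mM MgCl2, 100 mM NaCl, 0.1% fatty-acid-free BSA, 50 ug/ml saponin. Incubated 4 h at room temperature; [35S]GTPγS binding read by WGA SPA beads.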

The test system of test [4] is HFL-1 cells. Nature of the test: IL8 assay (S1P induced IL-8 production). The class given is cell-based. The conditions noted are these: Homo sapiens, HFL1; S1P (1 μM) induced IL-8, HFL-1 cells, without HSA. The method in brief:
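Serum-starved human fetal lung fibroblasts were preincubated with compound for 1 h at 37° C (10-point, 1/3 dilution, top 30 μM, 0.3% DMSO). S1P at 1 μM final was then added for 16–24 h, and IL-8 in the supernatant was measured by ELISA.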

The subject of test [5] is HFL-1 cells. The experiment in a line: IL8 assay in the presence of Human Serum Albumin. Format: cell-based. The following applies: HFL1, S1P (5 μM) induced IL-8, HFL-1 cells, with 2% HSA, read-out: HSA IL8 EC50. In short, it runs like this: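 Cells serum-starved with 1.95% HSA, pre-treated 1 h with compound (10-point 1/3 dilution from 30 μM, 0.3% DMSO), then stimulated with 5 μM S1P for 16 to 24 h at 37° C. Supernatant IL-8 measured by ELISA.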

Molecules are shown by their SMILES. Where only a bound is given, the exact number is not on record here.

T1 sequence (O95136 whole entry): as above
T2 sequence (P21453 whole entry): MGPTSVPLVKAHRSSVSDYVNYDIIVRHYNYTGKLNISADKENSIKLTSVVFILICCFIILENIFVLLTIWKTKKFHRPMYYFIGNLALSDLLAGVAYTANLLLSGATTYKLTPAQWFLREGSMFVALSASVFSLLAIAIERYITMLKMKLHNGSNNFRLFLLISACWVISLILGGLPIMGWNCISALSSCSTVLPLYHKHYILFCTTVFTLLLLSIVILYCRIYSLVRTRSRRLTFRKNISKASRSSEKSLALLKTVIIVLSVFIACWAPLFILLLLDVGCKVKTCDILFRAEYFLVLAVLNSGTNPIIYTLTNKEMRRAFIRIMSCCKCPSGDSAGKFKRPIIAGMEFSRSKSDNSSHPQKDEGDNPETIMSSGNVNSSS

As to `COCC(C)Oc1cc(NC(=O)NCc2cc(C)c(-c3cn(C)nc3C(F)(F)F)nn2)cc(C(F)(F)F)n1` (stereo not drawn) [Compound 41, 1-[2-(2-methoxy-1-methyl-ethoxy)-6-(trifluoromethyl)-4-pyridyl]-3-[[5-methyl-6-[1-methyl-3-(trifluoromethyl)pyrazol-4-yl]pyridazin-3-yl]methyl]urea], the EC50 is 0.101 µM in test [1]; at least 19.8 µM in test [2]; at least 19.8 µM in test [3]; 0.542 µM on S1PR2; 0.0489 µM in the test with HFL-1 cells [4]. Also, the IC50 in the test on HFL-1 cells [5] came to 0.597 µM.
For `CCOc1nc(Cl)cc(NC(=O)NCc2cc(C)c(-c3cn(C)nc3C(F)(F)F)nn2)n1` [Compound 38, 1-(6-chloro-2-ethoxy-pyrimidin-4-yl)-3-[[5-methyl-6-[1-methyl-3-(trifluoromethyl)pyrazol-4-yl]pyridazin-3-yl]methyl]urea], the EC50 was 0.0402 µM in test [1]; at least 19.8 µM in test [2]; at least 19.8 µM in test [3]; 0.109 µM at S1PR2; 0.0318 µM in the test with HFL-1 cells [4]. Also, the IC50 in the test on HFL-1 cells [5] was 0.198 µM.
